# Source: patent US20060058315A1, “2-Oxo-ethanesulfonamide derivates” (AstraZeneca AB, priority 2002, published 2006)
# Target: T1, human 11βHSD1 (Homo sapiens, UniProt P28845)
# T1 construct: a construct containing full-length human 11βHSD1 enzyme (in pCMVHyg); expressed in transfected cells
# Experiment: HeLa GRE4-βGal/11βHSD1 cell reporter assay (β-galactosidase production)
# Assay type: cell-based
# Settings: HeLa GRE4-βGal/11βHSD1 cells, cortisone 1 μM, overnight incubation, absorbance at 570 nm
# From the text: HeLa cells (human cervical carcinoma derived cells) were stably transfected with a construct containing four copies of the glucocorticoid response element (GRE) linked to a beta-galactosidase reporter gene (3 kb lac Z gene derived from pSV-B-galactosidase). These cells were then further stably transfected with a construct containing full-length human 11βHSD1 enzyme (in pCMVHyg) to create GRE4-βGal/11βHSD1 cells. The principal of the assay is as follows. Cortisone is freely taken up by the cells and is converted to cortisol by 11βHSD1 oxo-reductase activity and cortisol (but not cortisone) binds to and activates the glucocorticoid receptor. Activated glucocorticoid receptor then binds to the GRE and initiates transcription and translation of β-galactosidase. Enzyme activity can then be assayed with high sensitivity by colourimetric assay.
# Cells were routinely cultured in DMIM (Invitrogen, Paisley, Renfrewshire, UK) containing 10% foetal calf serum (LabTech), 1% glutamine (Invitrogen), 1% penicillin & streptomycin (Invitrogen), 0.5 mg/ml G418 (Invitrogen) & 0.5 mg/ml hygromycin (Boehringer). Assay media was phenol red free-DMEM containing 1% glutamine, 1% penicillin & streptomycin.
# Compounds (1 mM) to be tested were dissolved in dimethyl sulphoxide (DMSO) and serially diluted into assay media containing […]. […]
# A cocktail (25 μl) consisting of 10× Z-buffer (600 mM Na2HPO4, 400 mM NaH2PO4.2H2O, 100 mM KCl, 10 mM MgSO4.7H2O, 500 mM, β-mercaptoethanol, pH 7.0), SDS (0.2%), chlorophenol red-β-D-galactopyranoside (5 mM, Roche Diagnostics) was added per well and plates incubated at 37° C. for 3-4 hours. β-Galactosidase activity was indicated by a yellow to red colour change (absorbance at 570 nm) measured using a Tecan Spectrafluor Ultra.
# The calculation of median inhibitory concentration (IC50) values for the inhibitors was performed using Origin 6.0 (Microcal Software, Northampton M A USA). Dose response curves for each inhibitor were plotted as OD units at each inhibitor concentration with relation to a maximum signal (cortisone, no compound) and IC50 values calculated. […]
# T1 sequence (P28845 whole entry): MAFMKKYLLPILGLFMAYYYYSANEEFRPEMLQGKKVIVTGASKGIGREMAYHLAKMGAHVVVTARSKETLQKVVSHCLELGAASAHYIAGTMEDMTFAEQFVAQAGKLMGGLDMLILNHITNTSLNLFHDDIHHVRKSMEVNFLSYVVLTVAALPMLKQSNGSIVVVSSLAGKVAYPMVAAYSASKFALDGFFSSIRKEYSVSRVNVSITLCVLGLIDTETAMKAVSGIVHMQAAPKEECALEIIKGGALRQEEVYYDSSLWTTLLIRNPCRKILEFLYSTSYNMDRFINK
row,IC50 [nM],Compound
1,47,CN(C)S(=O)(=O)CC(=O)c1cnccn1 [Example 14]
2,72,"CN(C)S(=O)(=O)CC(=O)c1ccccn1 [Example 2, (N,N-Dimethylsulphamoylmethyl)(pyrid-2-yl)ketone]"
3,60,CC(C)Oc1ccc(C(=O)CS(=O)(=O)N(C(C)C)C(C)C)cc1 [Example 75]
